Assay results reported in PMC9338045, “An acquired phosphatidylinositol 4-phosphate transport initiates T-cell deterioration and leukemogenesis” (Nature Communications, 2022).
Read-outs that look alike come from different tables or passages of the source.

Columns and labels:
OSBP = target: T1, OSBP (Homo sapiens, UniProt P22059); test: SPR (Biacore 8K, protein immobilised on CM5 by amine coupling, kon/koff); type: binding
T1 construct: full-length cDNA in pGEX-4T-1, E. coli Rosetta(DE3), GST fusion, GST tag removed by thrombin
T1 sequence (P22059 1-807): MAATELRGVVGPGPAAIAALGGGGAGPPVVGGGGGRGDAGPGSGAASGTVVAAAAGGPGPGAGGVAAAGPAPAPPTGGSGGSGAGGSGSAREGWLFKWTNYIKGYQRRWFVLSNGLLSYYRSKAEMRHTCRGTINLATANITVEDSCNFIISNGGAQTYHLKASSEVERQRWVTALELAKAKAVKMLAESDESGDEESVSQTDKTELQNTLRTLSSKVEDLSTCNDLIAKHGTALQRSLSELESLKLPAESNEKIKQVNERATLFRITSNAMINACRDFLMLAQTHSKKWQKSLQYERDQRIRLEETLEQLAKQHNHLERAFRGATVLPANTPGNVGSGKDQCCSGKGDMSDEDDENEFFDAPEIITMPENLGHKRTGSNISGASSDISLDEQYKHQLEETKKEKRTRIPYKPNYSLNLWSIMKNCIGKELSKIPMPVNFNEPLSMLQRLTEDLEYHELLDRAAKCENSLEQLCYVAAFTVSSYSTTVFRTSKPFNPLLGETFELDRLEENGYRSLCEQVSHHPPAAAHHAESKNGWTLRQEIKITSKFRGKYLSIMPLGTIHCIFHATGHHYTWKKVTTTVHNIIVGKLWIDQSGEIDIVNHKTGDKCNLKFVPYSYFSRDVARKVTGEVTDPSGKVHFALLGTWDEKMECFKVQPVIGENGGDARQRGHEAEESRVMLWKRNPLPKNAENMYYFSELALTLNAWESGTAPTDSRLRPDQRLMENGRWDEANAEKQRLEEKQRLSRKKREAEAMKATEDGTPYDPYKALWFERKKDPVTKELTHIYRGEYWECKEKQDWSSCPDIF

ORP4L = target: T2, ORP4L (Homo sapiens, UniProt Q969R2); test: as above; type: binding; settings: PBST pH 7.4, 25 °C; acyl chains of PI(4)P not told for this test (diC8 named only for the competition test)
T2 construct: gene OSBP2; full-length cDNA in pGEX-4T-1, E. coli Rosetta(DE3), GST fusion, GST tag removed by thrombin
T2 sequence (Q969R2 1-916): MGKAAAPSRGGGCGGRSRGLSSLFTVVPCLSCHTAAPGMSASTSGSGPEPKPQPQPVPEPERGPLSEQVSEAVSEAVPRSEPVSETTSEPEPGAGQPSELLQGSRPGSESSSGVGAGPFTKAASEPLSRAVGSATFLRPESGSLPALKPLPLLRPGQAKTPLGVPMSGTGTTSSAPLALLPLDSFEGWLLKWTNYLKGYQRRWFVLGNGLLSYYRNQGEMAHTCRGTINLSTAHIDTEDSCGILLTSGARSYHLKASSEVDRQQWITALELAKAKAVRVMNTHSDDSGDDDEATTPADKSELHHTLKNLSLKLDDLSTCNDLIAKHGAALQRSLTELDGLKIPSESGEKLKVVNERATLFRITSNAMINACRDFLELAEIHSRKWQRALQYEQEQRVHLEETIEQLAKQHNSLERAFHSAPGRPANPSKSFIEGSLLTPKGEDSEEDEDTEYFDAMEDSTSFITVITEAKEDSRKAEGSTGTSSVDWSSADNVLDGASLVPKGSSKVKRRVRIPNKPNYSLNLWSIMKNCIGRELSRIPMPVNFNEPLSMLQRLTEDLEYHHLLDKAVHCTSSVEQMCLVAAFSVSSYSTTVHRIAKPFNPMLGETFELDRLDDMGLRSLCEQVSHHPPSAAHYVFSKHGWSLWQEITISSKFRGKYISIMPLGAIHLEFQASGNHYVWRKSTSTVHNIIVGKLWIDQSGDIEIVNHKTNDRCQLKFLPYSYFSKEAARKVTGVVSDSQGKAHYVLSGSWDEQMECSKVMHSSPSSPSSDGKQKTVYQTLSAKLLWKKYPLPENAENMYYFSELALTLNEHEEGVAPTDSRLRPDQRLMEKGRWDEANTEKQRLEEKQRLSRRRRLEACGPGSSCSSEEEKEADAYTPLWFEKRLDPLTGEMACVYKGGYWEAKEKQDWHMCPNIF

Kd (OSBP; PBST pH 7.4, 25 °C, acyl chains of PI(4)P not told for this test (diC8 named only for the competition test)) | Kd (ORP4L) | Compound | Kd (OSBP)
4.3 ± 1.2 µM | 12.7 ± 2.1 µM | PI(4)P | –
– | – | COc1ccc(C(=O)O[C@H]2[C@H](O[C@@H]3[C@@H](OC(C)=O)[C@H](O[C@H]4C[C@H]5[C@@H]6CC=C7C[C@@H](O)CC[C@]7(C)[C@H]6CC[C@]5(C)[C@@]4(O)[C@H](C)C(=O)CCC(C)C)OC[C@@H]3O)OC[C@@H](O)[C@@H]2O)cc1 [OSW-1] | 1.8 ± 0.37 µM
